Assay [1] deals with T1, Human IL-17A (Homo sapiens, UniProt Q16552).
T1 sequence (Q16552 20-155 limits assumed): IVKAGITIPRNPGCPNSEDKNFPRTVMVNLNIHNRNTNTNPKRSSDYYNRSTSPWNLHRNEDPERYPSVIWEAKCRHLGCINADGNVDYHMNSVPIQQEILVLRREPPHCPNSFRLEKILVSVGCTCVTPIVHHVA
The assay is described as follows: IL-17A enzyme-linked immunosorbent assay (competitive ELISA, IL-17A/IL-17Ra receptor-ligand binding). Also noted: purchased Sino Biological Inc. 12047-H07B. To be noted: human IL-17A coated plate, human IL-17Ra, read-out: IC50, inhibitory activity of compounds on human IL-17A. As to the method:
Experimental Example 1 IL-17A Enzyme-Linked Immunosorbent Assay (ELISA)
The inhibitory effects of human IL-17A inhibitors on receptor-ligand binding were quantitatively determined by a competitive enzyme-linked immunosorbent assay (ELISA). The ELISA was performed through the following steps.
Human IL-17A (Sino Biological Inc., Cat #12047-H07B) was diluted with coating buffer (50 mM phosphate-buffered saline (PBS), pH 7.4) to give an IL-17A concentration of 0.2 μg/ml. 100 μL of the resulting solution was added to each well of a 96-well plate, and the plate was incubated at 37° C. for 30 min. In a blank group, 100 100 μL of the coating buffer was added instead of the IL-17A solution.
The plate was washed four times with 10 mM phosphate-buffered saline containing 0.05% Tween-20 (PBST, pH 7.4). 200 μL of PBST was used per well for each wash. After the final wash, the plate was tapped dry on absorbent paper.
Fresh 5% (w/v) skim milk solution was prepared before the experiment. For example, 5 g of skim milk powder (Bio-Rad, 170-6404) was completely dissolved in 100 mL of 10 mM PBST. 200 μL of the 5% (w/v) skim milk solution was added to each well, and the plate was incubated on a shaker at 25° C. for 30 min.
(S4) Preparation of 100× to-be-Tested Compound Solutions
During step (S3), the to-be-tested compound solutions were prepared, respectively. Each powdered compound was dissolved in dimethyl sulfoxide (DMSO) to reach a storage concentration of 10 mM. The to-be-tested compound solutions were then serially diluted four-fold with DMSO to obtain nine storage concentrations ranging from […].
(S6) Pre-incubation of IL-17A with to-be-tested compound solutions
89 μL of PBST and 1 μL of each of the to-be-tested compound solutions were added to each well and mixed. The plate was pre-incubated at 25° C. for 10 min. In the blank group and the control group, 1 μL of DMSO was added instead of the to-be-tested compound solutions.
(S7) Incubation with Human Interleukin-17 Receptor a (IL-17Ra)
10 μL of 16 nM human IL-17Ra (Sino Biological Inc., Cat #10895-H03H) was added, followed by incubation on a shaker at 25° C. for 30 min. The receptor solution was prepared in 10 mM PBST.
(S9) Incubation with Horseradish Peroxidase-Conjugated Antibody
100 μL of mouse anti-Fc tag horseradish peroxidase (HRP)-conjugated antibody (Sino Biological Inc., Cat #10702-MM01T-H) was added to each well. The plate was incubated on a shaker at 25° C. for 30 min. The antibody was diluted with 5% (w/v) skim milk solution at 1:5,000 (v/v).
100 μL of 3,3′,5,5′-tetramethylbenzidine (TMB) substrate solution (BD, Cat #555214) was added to each well. Substrate A and substrate B were freshly mixed at a volume ratio of 1:1 before use. The plate was incubated in the dark at 25° C. for 5-15 min.
(S12) Termination and Detection
The color reaction was terminated by addition of 2.5 M hydrochloric acid (HCl). Absorbance was measured at 450 nm using a BMG PHERStar microplate reader.
(S13) Calculation of Half-Maximal Inhibitory Concentration (IC50)
The relative percent residual activity at each compound concentration was calculated according to Equation 1. The IC50 value of each test compound was then calculated in GraphPad 6 using the equation for log(inhibitor) versus normalized response with variable slope, as shown in Equation 2.
relative percent residual activity (%)=[(absorbance of sample−absorbance of blank group)/(absorbance of control group−absorbance of blank group)]%. Equation 1: […]
The compounds prepared in the above examples were tested for IL-17A inhibitory activity according to the above method.

Assay [2] addresses T1, Human IL-17A. The assay is described as follows: Inhibition of human IL-17A protein-induced GROα/CXCL1 production in HT-29 cells. The class given is cell-based. Also on record: purchased R&D 317-ILB; host or cells: added exogenously to HT-29 cells. Conditions: 30 ng/mL human IL-17A protein, 48 h, GROα in supernatant by ELISA kit, read-out: Inhibitory IC50 of compounds on HT-29 cell GROα/CXCL1. As to the method:
Experiment Example 3 Inhibition of Human IL-17A Protein-Induced GROα/CXCL1 Production in HT-29 Cells by Compounds
This assay was conducted to evaluate the ability of the compounds to inhibit human IL-17A protein-induced production of the chemokine growth-regulated oncogene alpha/C-X-C motif chemokine ligand 1 (GROα/CXCL1) in HT-29 cells.
Human colorectal adenocarcinoma epithelial HT-29 cells (Chengdu Zhongyuan Gongchuang Technology Co., Ltd.) were seeded into a 96-well plate at a density of 5×10^4 cells per well and were cultured overnight in an incubator at 37° C.
30 ng/mL of human IL-17A protein (R&D, #317-ILB) was mixed with gradient concentrations of the IL-17A small-molecule inhibitor, or with […] of a positive control IL-17A antibody (R&D, #AF-317-NA). These mixtures were incubated at 37° C. for 1 h and were then added to the plate. The mixtures were co-incubated with the HT-29 cells at 37° C. for 48 h. Thereafter, the level of GROα in the cell culture supernatant was determined using a GROα ELISA kit (Cisbio, #62HCXC1PEG).
The inhibitory activity of each compound was expressed as the half-maximal inhibitory concentration (IC50) for inhibition of GROα/CXCL1 production in HT-29 cells.
In general terms: In an ELISA, binding on a coated surface is turned into a signal by an enzyme label.

The structures appear in SMILES notation.

With `Cc1[nH]nc2c1-c1cnc(NC(=O)[C@@H](NC(=O)c3ccnn3C3CC3)C(C3CC3)C3CC3)cc1CN(C1CC1)CC2` [compound 219], the IC50 in assay [1] was ≤ 50 nM; in assay [2], ≤ 100 nM. With `Cc1[nH]nc2c1-c1cc(F)c(NC(=O)[C@@H](NC(=O)c3ccnn3CC3(F)CC3)C(C3CC3)C3CC3)cc1COCC2` [compound 79], the IC50 fell in the range of 50 to 150 nM in assay [1] and 100 to 500 nM in assay [2]. Taken in the same sequence, the figures for `Cc1[nH]nc2c1-c1cc(F)c(NC(=O)[C@@H](NC(=O)c3ccnn3CCCF)C(C3CC3)C3CC3)cc1CN(CC(F)F)CC2` [compound 181] were ≤ 50 nM and ≤ 100 nM. On the same counts, the results for `Cc1[nH]nc2c1-c1cc(F)c(NC(=O)[C@@H](NC(=O)c3conc3C(C)C)C(C3CC3)C3CC3)cc1CN(CC(F)F)CC2` [compound 180] are ≤ 50 nM and ≤ 100 nM.

Consider `CSCC(C)n1nccc1C(=O)N[C@H](C(=O)Nc1cc2c(cc1F)-c1c(n[nH]c1C)CCOC2)C(C1CC1)C1CC1` (single isomer, unassigned) [compound 40b], for which the values for the IC50 in assay [1] and in assay [2] were ≤ 50 nM and 100 to 500 nM, respectively. Taken in the same sequence, the figures for `C=C(F)C(=O)N[C@H](C(=O)Nc1cc2c(cc1F)-c1c(n[nH]c1C)CCOC2)C(C1CC1)C1CC1` [compound 233] were ≤ 50 nM and ≤ 100 nM. `Cc1[nH]nc2c1-c1cnc(NC(=O)[C@@H](NC(=O)c3ccnn3C(C)C(F)F)C(C3CC3)C3CC3)cc1COCC2` (single isomer, unassigned) [compound 190b]: the results for the IC50 in assay [1] and in assay [2] were 50 to 150 nM and 100 to 500 nM, respectively. On the same counts, the results for `CC(C)=C(F)C(=O)N[C@H](C(=O)Nc1cc2c(cc1F)-c1c(n[nH]c1C)CCOC2)C(C1CC1)C1CC1` [compound 232] are ≤ 50 nM and ≤ 100 nM. Turning to `Cc1[nH]nc2c1-c1cc(F)c(NC(=O)[C@@H](NC(=O)c3ccnn3C(C)C)[C@H]3CC[C@H](C)CC3)cc1COCC2` [compound 45], the IC50 is ≤ 50 nM in assay [1] and 100 to 500 nM in assay [2]. On the same counts, the results for `CCN1CCc2n[nH]c(C)c2-c2cc(F)c(NC(=O)[C@@H](NC(=O)c3ccnn3CC)C(C3CC3)C3CC3)cc2C1` [compound 157] are ≤ 50 nM and 100 to 500 nM. In the case of `CCn1nccc1C(=O)N[C@H](C(=O)Nc1cc2c(cn1)-c1c(n[nH]c1C)CCOC2)C(C1CC1)C1CC1` [compound 53], the IC50 was ≤ 50 nM in assay [1] and 100 to 500 nM in assay [2]. `Cc1[nH]nc2c1-c1cc(F)c(NC(=O)[C@@H](NC(=O)c3conc3C(C)C)C(C3CC3)C3CC3)cc1CN(CC(F)F)C(=O)C2` [compound 171]: the values for the IC50 in assay [1] and in assay [2] were ≤ 50 nM and ≤ 100 nM, respectively. Regarding `CCC1Cc2n[nH]c(C)c2-c2cc(F)c(NC(=O)[C@@H](NC(=O)c3ccnn3C(C)C)C(C3CC3)C3CC3)cc2CO1` (single isomer, unassigned) [compound 120b], the figures for the IC50 in assay [1] and in assay [2] were ≤ 50 nM and 100 to 500 nM, respectively.

For `Cc1[nH]nc2c1-c1cnc(NC(=O)[C@@H](NC(=O)c3ccnn3C(C)C(F)F)C(C3CC3)C3CC3)cc1COCC2` (single isomer, unassigned) [compound 190a], the figures for the IC50 in assay [1] and in assay [2] were ≤ 50 nM and 100 to 500 nM, respectively. On the same counts, the results for `CSCC(C)n1nccc1C(=O)N[C@H](C(=O)Nc1cc2c(cc1F)-c1c(n[nH]c1C)CCOC2)C(C1CC1)C1CC1` (single isomer, unassigned) [compound 40a] are 50 to 150 nM and 100 to 500 nM. As to `Cc1[nH]nc2c1-c1cc(F)c(NC(=O)[C@@H](NC(=O)c3ccnn3C(C)C)C(C3CC3)C3CC3)cc1C(=O)NC(C)C2` (single isomer, unassigned) [compound 187a], in assay [2], the IC50 is ≤ 100 nM. The same measure, in the same setting: the figure for `Cc1c2c(nn1COCC[Si](C)(C)C)CC(=O)N(Cc1ccccc1)Cc1cc(N)c(F)cc1-2` [compound 183] is 100 to 500 nM; for `Cc1[nH]nc2c1-c1cc(F)c(NC(=O)[C@@H](NC(=O)c3ccnn3C(C)C)C(C3CC3)C3CC3)cc1C(=O)NC(C)C2` (single isomer, unassigned) [compound 187b] it is ≤ 100 nM.

For the origin of these results see US20260258050A1, “IMMUNOMODULATOR” (HITGEN INC., priority 2023, published 2026).
